Values quoted from earlier work as cited in patent publication US20130178495A1, “IBUDILAST FOR RELIEVING NEGATIVE EFFECTS OF MEDICATION OVERUSE HEADACHE” (MediciNova, Inc., priority 2011, published 2013).

Key:
[1] = single patient, 20 mg per day of ibudilast
[2] = rat, bilateral indwelling catheters between the meninges and the skull

CC(C)C(=O)c1c(C(C)C)nn2ccccc12 [ibudilast]
frequency and intensity of migraine ([1]; migraine on the right side continued): decreased | daily headaches ([1]; no control): disappeared in one week | facial allodynia [2]: blocked and reversed facial allodynia
